Results taken from US20260035360A1, “INHIBITORS OF MYC AND USES THEREOF” (Northwestern University, priority 2022, published 2026).

Columns and labels:
[1] = test system: PC3 cells; assay: PC3 cell viability, CellTitreGlo Assay, 72 hrs; type: cell-based; details: Homo sapiens, PC-3
Protocol: (§1) Table 2. Biological data of selected compounds. For IC50 determination. PC3 and PC12 cells were treated with increasing concentrations of the indicated compounds for 72 hrs and cell viability assessed using CellTitreGlo Assay (Promega). For MYC and ATF4 protein level determination. PC3 cells were treated with the indicated compounds for 24 hr sand cell lysates processed for western blot with MYC and ATF4 antibodies using Actin as a control. Quantification analyses were performed by Biorad ChemiDoc Imager and Bio-Rad Image Lab software.

[2] = test system: PC12 cells; assay: PC12 cell viability, CellTitreGlo Assay, 72 hrs; type: cell-based; details: for IC50: Rattus norvegicus, PC-12
Protocol: as §1

[3] = target: T1, MYC (Homo sapiens, UniProt P01106); assay: MYC protein level in PC3 cells by western blot, 24 hr; type: cell-based; details: PC-3, 24 h, PC3, 24 h, Actin control, read-out: Relative MYC protein at 10 μM (%, PC3 24 h)
T1 construct: endogenous in cells; host or cells: PC3 cells
Protocol: as §1

[4] = test system: ATF4; assay: ATF4 protein level in PC3 cells by western blot, 24 hr; type: cell-based; details: Homo sapiens, PC-3, PC3, 24 h, Actin control, read-out: Relative ATF4 protein at 10 μM (fold change, PC3 24 h)
Protocol: as §1

[5] = female, mouse, in vivo, po, 1 mg/kg
Protocol: (§2) PK: Plasma levels of compounds were determined after 1 mg/kg dosing PO in female BALB/C mice.
(§3) Plasma levels of compounds were determined after 1 mg/kg dosing PO in female BALB/C mice.

[6] = Plasma pharmacokinetics after 1 mg/kg PO in female mice; details: mouse; for half-life: female mice
Protocol: as §2, §3

T1 sequence (P01106 whole entry): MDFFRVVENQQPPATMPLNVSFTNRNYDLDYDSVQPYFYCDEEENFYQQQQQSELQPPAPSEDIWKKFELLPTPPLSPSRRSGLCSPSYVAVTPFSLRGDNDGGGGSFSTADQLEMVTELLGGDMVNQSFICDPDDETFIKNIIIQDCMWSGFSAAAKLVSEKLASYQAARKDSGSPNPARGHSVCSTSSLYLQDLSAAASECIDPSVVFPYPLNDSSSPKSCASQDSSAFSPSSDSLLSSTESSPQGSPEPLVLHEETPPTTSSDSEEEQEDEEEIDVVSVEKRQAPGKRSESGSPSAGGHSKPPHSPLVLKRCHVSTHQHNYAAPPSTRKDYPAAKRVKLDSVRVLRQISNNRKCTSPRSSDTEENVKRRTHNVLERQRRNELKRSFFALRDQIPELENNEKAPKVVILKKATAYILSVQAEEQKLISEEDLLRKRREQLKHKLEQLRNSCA

Row | Compound | IC50 [1] [µM] | remaining activity at 10 µM [3] [%] | IC50 [2] [µM] | fold induction at 10 µM [4] | PC12 IC50 [2] | AUMC0-t [5] [h*h*ng/mL] | AUC(0-t) [6] [ng·h/mL] | Cmax [6] [ng/mL] | Tmax [6] [h] | MRT inf [6] [h] | half-life ([6]; T1/2, Table 4, PO 1 mg/kg) [h] | half-life ([6]; T1/2—range*, Table 4, PO 1 mg/kg) [h]
1 | Cn1nc(C(F)(F)F)c(Cl)c1-c1cc(Cl)c(COc2ccc(Cl)cc2Cl)c(-c2ccc(Cl)c(C(F)(F)F)c2)c1O [NUCC-0227038] | 1.61 | 34.5 | 15.3 | 15.1 | – | – | – | – | – | – | – | –
2 | Cn1nc(C(F)(F)F)cc1-c1ccc(COc2ccc(Cl)cc2)c(-c2ccc(Cl)c(C(F)(F)F)c2)c1O [NUCC-0202416] | 4.71 | 38.9 | – | 9.3 | inactive | 88636 | 5760 | 244 | 8 | – | – | –
3 | C[C@@H](C(=O)N[C@H](C(=O)N1C[C@@H](NC(=O)COCCOCCNC(=O)CCOCCCN(C(=O)c2ccc(Cl)c(C(F)(F)F)c2)c2ccc(-c3cc(C(F)(F)F)nn3C)c(O)c2)C[C@H]1C(=O)N[C@@H]1CCCc2ccccc21)C1CCCCC1)N(C)C(=O)OC(C)(C)C [NUCC-0226299] | 3.8 | 42.1 | 11.3 | 5.4 | – | – | – | – | – | – | – | –
4 | Cn1nc(C(F)(F)F)cc1-c1c(F)cc(OCc2ccc(Cl)cc2)c(-c2ccc(Cl)c(C(F)(F)F)c2)c1O [NUCC-0226545] | 2.2 | 19.5 | 10.8 | 4.7 | – | 36107 | 4760 | 472 | 4 | 7.57 | 4.3 | 8 to 24
5 | Cc1ncsc1-c1ccc(CNC(=O)[C@@H]2C[C@H](O)CN2C(=O)[C@H](NC(=O)COCCNC(=O)CCOCCCN(C(=O)c2ccc(Cl)c(C(F)(F)F)c2)c2ccc(-c3cc(C(F)(F)F)nn3C)c(O)c2)C(C)(C)C)cc1 [NUCC-0226291] | 4 | 54.6 | 14.6 | 1.8 | – | – | – | – | – | – | – | –
6 | CNc1c(Cl)cc(-c2cc(C(F)(F)F)nn2C)c(O)c1-c1ccc(Cl)c(C(F)(F)F)c1 [NUCC-0226529] | 3.1 | 41.3 | 19.4 | 2.4 | – | – | – | – | – | – | – | –
7 | Cn1nc(C(F)(F)F)cc1-c1ccnc(-c2ccc(Cl)c(C(F)(F)F)c2)c1O [NUCC-0226595] | 0.74 | 69.8 | 4.03 | 6.3 | – | – | – | – | – | – | – | –
8 | CN(C)c1c(Cl)cc(-c2cc(C(F)(F)F)nn2C)c(O)c1-c1ccc(Cl)c(C(F)(F)F)c1 [NUCC-0226530] | 12 | 35.5 | 9.4 | 3 | – | – | – | – | – | – | – | –
9 | Cn1nc(C(F)(F)F)cc1-c1ccc(OCc2ccc(OCCOCCNc3cccc4c3C(=O)N(C3CCC(=O)NC3=O)C4=O)cc2)c(-c2ccc(Cl)c(C(F)(F)F)c2)c1O (stereo not shown) [NUCC-0226301] | 1.1 | 48.5 | 3.8 | 3.2 | – | – | – | – | – | – | – | –
10 | COc1c(Cl)cc(-c2cc(C(F)(F)F)nn2C)c(O)c1-c1ccc(Cl)c(C(F)(F)F)c1 [NUCC-0226500] | 1.6 | 72.4 | 8.6 | 7.7 | – | – | – | – | – | – | – | –
11 | Cn1nc(C(F)(F)F)cc1-c1ccc(N(CC23CC4CC(CC(C4)C2)C3)C(=O)c2ccc(Cl)c(C(F)(F)F)c2)cc1O [NUCC-0226225] | 2.1 | 28.4 | 14.5 | 15.2 | – | – | – | – | – | – | – | –

Further lines, with some results ahead:

Row | IC50 [1] [µM] | remaining activity at 10 µM [3] [%] | Compound | IC50 [2] [µM] | fold induction at 10 µM [4] | PC12 IC50 [2] | AUMC0-t [5] [h*h*ng/mL] | AUC(0-t) [6] [ng·h/mL] | Cmax [6] [ng/mL] | Tmax [6] [h] | MRT inf [6] [h] | half-life ([6]; T1/2, Table 4, PO 1 mg/kg) [h] | half-life ([6]; T1/2—range*, Table 4, PO 1 mg/kg) [h]
12 | 2.4 | 37.3 | Cn1nc(C(F)(F)F)cc1-c1ccc(OCc2ccc(Cl)cc2)c(-c2ccc(Cl)c(C#N)c2)c1O [NUCC-0226499] | 13.5 | 17.1 | – | – | – | – | – | – | – | –
13 | 1.01 | 48.5 | Cn1nc(C#N)cc1-c1ccc(OCc2ccc(Cl)cc2)c(-c2ccc(Cl)c(C(F)(F)F)c2)c1O [NUCC-0226914] | 3.5 | 14.1 | – | – | – | – | – | – | – | –
14 | 14.2 | 86.9 | Cn1nc(N)cc1-c1ccc(OCc2ccc(Cl)cc2)c(-c2ccc(Cl)c(C(F)(F)F)c2)c1O [NUCC-0226915] | 10.5 | 0.95 | – | – | – | – | – | – | – | –
15 | 3.8 | 15.6 | Cc1ccc(C2(Oc3ccc(-c4cc(C(F)(F)F)nn4C)c(O)c3-c3ccc(Cl)c(C(F)(F)F)c3)CC2)cc1 [NUCC-0226495] | 597 | 11.5 | – | – | – | – | – | – | – | –
16 | 1.14 | 46.7 | Cn1nc(C(F)(F)F)cc1-c1ccc(Oc2ccc(Cl)cc2)c(-c2ccc(Cl)c(C(F)(F)F)c2)c1O [NUCC-0227247] | 7.12 | 18.3 | – | – | – | – | – | – | – | –
17 | 0.74 | 35.4 | Cn1nc(C#N)cc1-c1cc(Cl)c(COc2ccc(Cl)cc2)c(-c2ccc(Cl)c(C(F)(F)F)c2)c1O [NUCC-0227065] | 3.8 | 13.4 | – | – | – | – | – | – | – | –
18 | 0.964 | 40.7 | Cn1nc(C(F)(F)F)cc1-c1cc(Cl)c(CNc2ccc(Cl)cc2)c(-c2ccc(Cl)c(C(F)(F)F)c2)c1O [NUCC-0227062] | 2.31 | 15 | – | – | – | – | – | – | – | –
19 | 0.985 | 37.2 | Cn1nc(C(F)(F)F)c(Cl)c1-c1cc(F)c(COc2ccc(Cl)cc2)c(-c2ccc(Cl)c(C(F)(F)F)c2)c1O [NUCC-0227063] | 5.02 | 12.4 | – | – | – | – | – | – | – | –
20 | > 50 | 94.4 | Cn1cncc1-c1ccc(OCc2ccc(Cl)cc2)c(-c2ccc(Cl)c(C(F)(F)F)c2)c1O [NUCC-0226660] | 9.22 | 2.5 | – | – | – | – | – | – | – | –
21 | 3.28 | 41.8 | Cn1nc(C(F)(F)F)cc1-c1cc2c(c(-c3ccc(Cl)c(C(F)(F)F)c3)c1O)CN(Cc1ccc(Cl)cc1)CC2 [NUCC-0227169] | 8.01 | 14.6 | – | – | – | – | – | – | – | –
22 | 0.91 | 37.3 | Cn1nc(C(F)(F)F)c(Cl)c1-c1cc(Cl)c(Oc2ccc(Cl)cc2)c(-c2ccc(Cl)c(C(F)(F)F)c2)c1O [NUCC-0227246] | 5.78 | 23.5 | – | – | – | – | – | – | – | –
23 | 4.74 | 62.9 | Cn1nc(C(F)(F)F)cc1-c1cc2c(c(-c3ccc(Cl)c(C(F)(F)F)c3)c1O)OC(c1ccc(Cl)cc1)CC2 (stereo not shown) [NUCC-0227173] | 14.1 | 9 | – | – | – | – | – | – | – | –
24 | 4.5 | 19.8 | Cn1nc(C(F)(F)F)cc1-c1cc(Cl)c(N)c(-c2ccc(Cl)c(C(F)(F)F)c2)c1O [NUCC-0226528] | 30.5 | 2 | – | – | – | – | – | – | – | –
25 | 4.42 | 72.3 | Cn1nc(C(F)(F)F)cc1-c1ccc(-c2ccc(Cl)cc2)c(OCc2ccc(Cl)c(C(F)(F)F)c2)c1O [NUCC-0226652] | 16.6 | 5.2 | – | – | – | – | – | – | – | –
26 | 4.6 | 59.4 | COc1ccc(-c2c(Cl)c(C(F)(F)F)nn2C)c(O)c1-c1ccc(Cl)c(C(F)(F)F)c1 [NUCC-0226501] | – | 9.3 | – | – | – | – | – | – | – | –
27 | 0.399 | 42 | Cn1nc(C(F)(F)F)c(Cl)c1-c1ccc(COc2ccc(Cl)cc2Cl)c(-c2ccc(Cl)c(C(F)(F)F)c2)c1O [NUCC-0227064] | 8.27 | 12.7 | – | – | – | – | – | – | – | –
